Some test systems named below: A549 NSCLC; HL-60(TB) leukemia; M14 melanoma; NCI-H226 lung; OVCAR-3 ovarian; OVCAR-5 ovarian; SK-MEL-5 melanoma; SK-OV-3 ovarian; U251 CNS; UO-31 renal.
Test in all cases: growth of human tumour cells (NCI), 48 h

Several values for one entry are separate records, joined by “and”; a condition that tells them apart may be missing. Equal entries are not always repeated.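 All cell lines were grown in 96-well plates and treated with compound for 48 hours. GI50 marks 50% less growth. The concentration for full growth arrest is given as TGI.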 Bounds are passed on as bounds.

From PubChem BioAssay (NCI) come the findings set out here.

Regarding `Cn1cc(C2=C(c3c4n(c5ccccc35)CCNC4)C(=O)NC2=O)c2ccccc21`, the GI50 is 11.8 µM in the assay with A549 NSCLC; 3.92 µM with HL-60(TB) leukemia; 12.4 µM with M14 melanoma; 13.8 µM with NCI-H226 lung; 5.42 µM in the assay with OVCAR-3 ovarian; more than 25 µM in the assay with OVCAR-5 ovarian. The GI50 in the assay with SK-MEL-5 melanoma was 4.82 µM; in the assay with SK-OV-3 ovarian it was 8.84 µM; in the assay on U251 CNS, 9.23 µM; with UO-31 renal, 4.53 µM. In addition, the TGI with A549 NSCLC is more than 25 µM; with HL-60(TB) leukemia it was more than 25 µM; in the assay with M14 melanoma, more than 25 µM; in the assay on NCI-H226 lung it was more than 25 µM; in the assay on OVCAR-3 ovarian it was more than 21.7 µM; in the assay on OVCAR-5 ovarian, more than 25 µM. The TGI with SK-MEL-5 melanoma is more than 17.2 µM; with SK-OV-3 ovarian, more than 25 µM; in the assay with U251 CNS it was more than 25 µM; in the assay with UO-31 renal, more than 22.2 µM.

For the compound `COC(=O)Oc1nn(C(=O)OC)c(=O)c2ccccc12`, the TGI in the assay with A549 NSCLC, in the assay on HL-60(TB) leukemia, in the assay on M14 melanoma, in the assay with NCI-H226 lung, with OVCAR-3 ovarian and with OVCAR-5 ovarian was more than 100 µM throughout. The TGI in the assay on SK-MEL-5 melanoma, with SK-OV-3 ovarian, in the assay on U251 CNS and in the assay on UO-31 renal was more than 100 µM throughout.

`CNS(=O)(=O)OCC1OC(n2cnc3cncnc32)C(O)C1O` (stereo not given): the GI50 in the assay on A549 NSCLC, in the assay with HL-60(TB) leukemia, with M14 melanoma, in the assay on NCI-H226 lung, in the assay on OVCAR-3 ovarian and in the assay on OVCAR-5 ovarian was more than 100 µM in each case. Moreover, the GI50 in the assay with SK-MEL-5 melanoma, in the assay on SK-OV-3 ovarian, in the assay on U251 CNS and with UO-31 renal was more than 100 µM in each case. For the same compound, the TGI with A549 NSCLC, with HL-60(TB) leukemia, in the assay with M14 melanoma, with NCI-H226 lung, in the assay with OVCAR-3 ovarian and in the assay with OVCAR-5 ovarian was more than 100 µM in each case. Besides, the TGI in the assay on SK-MEL-5 melanoma, in the assay with SK-OV-3 ovarian, in the assay with U251 CNS and in the assay on UO-31 renal was more than 100 µM in each case.

Regarding `COC(=O)C1=COC2OC3C(C(C)O)C(=O)OC34C=CC1C24` (stereo not given), the TGI was more than 100 µM in the assay with A549 NSCLC; 39.7 µM in the assay with HL-60(TB) leukemia; more than 100 µM in the assay on M14 melanoma; more than 100 µM in the assay with NCI-H226 lung; more than 100 µM in the assay on OVCAR-3 ovarian; more than 100 µM with OVCAR-5 ovarian. Further, the TGI in the assay with SK-MEL-5 melanoma, in the assay with SK-OV-3 ovarian, in the assay on U251 CNS and in the assay with UO-31 renal was more than 100 µM throughout.

On to `Cc1ccc(F)c(NC(=O)Nc2ccc(-c3cccc4[nH]nc(N)c34)cc2)c1`, for which the GI50 in the assay on A549 NSCLC is 2.31 µM and 2.12 µM; in the assay on HL-60(TB) leukemia, 1.95 µM and 3.29 µM; with M14 melanoma it was 3.63 µM and 3.58 µM; in the assay with NCI-H226 lung, 5.88 µM and 6.06 µM; in the assay on OVCAR-3 ovarian, 2.85 µM and 3.15 µM; with OVCAR-5 ovarian, 2.74 µM and 3.42 µM. In addition, the GI50 in the assay on SK-MEL-5 melanoma was 2.88 µM; in the assay with SK-OV-3 ovarian, 10.5 µM; in the assay on U251 CNS it was 3.49 µM and 3.16 µM; in the assay on UO-31 renal, 2.79 µM and 2.91 µM. The TGI in the assay on A549 NSCLC was 5.97 µM and 4.95 µM; in the assay with HL-60(TB) leukemia, 5.63 µM and > 10 µM; with M14 melanoma, 15.5 µM and > 10 µM; in the assay with NCI-H226 lung, 20.5 µM and > 10 µM; in the assay with OVCAR-3 ovarian, 7.76 µM and > 10 µM; in the assay on OVCAR-5 ovarian, 9.11 µM and > 10 µM. Moreover, the TGI was 8.56 µM in the assay with SK-MEL-5 melanoma; 23.5 µM and > 10 µM in the assay on SK-OV-3 ovarian; 20.6 µM and > 10 µM in the assay on U251 CNS; 11.3 µM and > 10 µM in the assay on UO-31 renal.

On to `COC1=CC(c2ccc[nH]2)=N/C1=C\c1[nH]c(C)c(C(=O)CCC(=O)Oc2ccc3c(c2)CCC2C3CC[C@]3(C)[C@@H](O)CC[C@@H]23)c1C` (stereo not given in full), for which the GI50 was 2.47 µM with A549 NSCLC; 4.7 µM in the assay with HL-60(TB) leukemia; 2.1 µM with M14 melanoma; 4.77 µM in the assay with NCI-H226 lung; 2.96 µM in the assay on OVCAR-3 ovarian; 5.47 µM in the assay with OVCAR-5 ovarian. Besides, the GI50 was 1.46 µM in the assay on SK-MEL-5 melanoma, 5.56 µM in the assay with SK-OV-3 ovarian, 2.99 µM in the assay on U251 CNS and 1.59 µM in the assay on UO-31 renal. In addition, the TGI with A549 NSCLC was 9.18 µM; in the assay with HL-60(TB) leukemia, more than 100 µM; with M14 melanoma, 4.6 µM; in the assay with NCI-H226 lung it was more than 100 µM; in the assay with OVCAR-3 ovarian, 27.9 µM; in the assay with OVCAR-5 ovarian, more than 100 µM. Besides, the TGI in the assay on SK-MEL-5 melanoma is 2.91 µM; in the assay on SK-OV-3 ovarian, more than 100 µM; in the assay with U251 CNS, 28.4 µM; in the assay on UO-31 renal, 3.73 µM.

`COc1cccc(C=O)c1C(=O)c1cc(O)ccc1O`: the TGI is more than 100 µM in the assay on A549 NSCLC; more than 100 µM in the assay with HL-60(TB) leukemia; 35 µM with M14 melanoma; more than 100 µM with NCI-H226 lung; 45.5 µM with OVCAR-3 ovarian; more than 100 µM in the assay on OVCAR-5 ovarian. Also, the TGI in the assay on SK-MEL-5 melanoma was more than 100 µM; in the assay on SK-OV-3 ovarian it was more than 100 µM; in the assay with U251 CNS, more than 100 µM; with UO-31 renal, 33.6 µM.

On to `COc1ccc(-c2cc(/C=C3\C(=O)Nc4cc(Cl)ccc43)[nH]n2)cc1`, for which the GI50 in the assay with A549 NSCLC was 5.49 µM; in the assay with HL-60(TB) leukemia, 2.26 µM; in the assay on M14 melanoma, 2.7 µM; with NCI-H226 lung, 13.1 µM; with OVCAR-3 ovarian it was 2.59 µM; with OVCAR-5 ovarian, 5.89 µM. Moreover, the GI50 in the assay with SK-MEL-5 melanoma is 1.9 µM; in the assay on SK-OV-3 ovarian it was 4.23 µM; with U251 CNS, 3.46 µM; in the assay on UO-31 renal, 3.49 µM. Further, the TGI was more than 100 µM in the assay with A549 NSCLC; 6.33 µM with HL-60(TB) leukemia; more than 100 µM with M14 melanoma; 98.6 µM in the assay with NCI-H226 lung; 8.48 µM in the assay with OVCAR-3 ovarian; more than 100 µM in the assay with OVCAR-5 ovarian. Further, the TGI with SK-MEL-5 melanoma was 8.32 µM; in the assay on SK-OV-3 ovarian, more than 100 µM; with U251 CNS, 25.8 µM; in the assay with UO-31 renal, more than 100 µM.

Consider `CC1=C/C=C/C(=O)O[C@@H]([C@H](C)[C@H](O)[C@@H](C)NC(=O)C(C)C)[C@H](C)/C=C/C(C)=C/[C@H]2C=CCC[C@@]2(C)\C=C\1`, for which the GI50 was 1.83 µM and 0.328 µM in the assay on A549 NSCLC; 0.744 µM and 0.747 µM in the assay on HL-60(TB) leukemia; 0.0377 µM and 0.0293 µM in the assay on M14 melanoma; 2.48 µM and 0.582 µM in the assay with NCI-H226 lung; 2.77 µM and 1.77 µM in the assay on OVCAR-3 ovarian; 8.43 µM and 5.43 µM with OVCAR-5 ovarian. Also, the GI50 in the assay on SK-MEL-5 melanoma is 0.0634 µM and 0.0202 µM; with SK-OV-3 ovarian, 3.09 µM and 0.872 µM; in the assay with U251 CNS it was 0.0759 µM and 0.0702 µM; in the assay with UO-31 renal, 0.244 µM and 0.396 µM. Moreover, the TGI with A549 NSCLC was 13.2 µM; with HL-60(TB) leukemia, 9.12 µM and 13.7 µM; with M14 melanoma it was 0.216 µM and 0.125 µM; in the assay with NCI-H226 lung, 10 µM; in the assay on OVCAR-3 ovarian, 9.33 µM; in the assay with OVCAR-5 ovarian it was 14.3 µM. Also, the TGI in the assay with SK-MEL-5 melanoma is 0.81 µM and 0.812 µM; with SK-OV-3 ovarian, more than 42.3 µM; in the assay on U251 CNS it was 7.18 µM; in the assay with UO-31 renal, 7.85 µM.
